In general, Kd refers to the constant that tells how readily two partners part at equilibrium. A lower Kd goes with a tighter complex.

In PMC9538320 (Protein Science : A Publication of the Protein Society, 2022) one finds Kd data, which are given here for one compound.

The assay addresses SARS-CoV-2 protein 7a ectodomain (protein 7a ECD) (Severe acute respiratory syndrome coronavirus 2, UniProt P0DTC7). The assay is described as follows: biochemical.

SARS-CoV-2 protein 7a ectodomain (protein 7a ECD), sequence (P0DTC7 16-95): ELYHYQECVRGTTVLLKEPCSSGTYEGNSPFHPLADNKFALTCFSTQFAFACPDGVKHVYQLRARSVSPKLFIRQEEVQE

Compound `C=CC1=C(C)C2=Cc3c(C=C)c(C)c4[n]3[Fe]([Cl])[n]3c(c(C)c(CCC(=O)O)c3=CC3=NC(=C4)C(C)=C3CCC(=O)O)=CC1=N2` [heme] showed a Kd of 469 ± 27 nM.
